For this assay, the target named is SARS-CoV-2 3CLpro (Severe acute respiratory syndrome coronavirus 2, UniProt P0DTD1). As to the kind of experiment: biochemical. It counts as biochemical. Also noted: Replicate_1 / Replicate_2 / mean / mean (LOPAC_screen_w_protease): unit not given here. The note with it: for inhibition at 5 µM: 4 h.
[1] abbreviates: sheet LOPAC_screen_w_protease, LOPAC1280 at 5 µM, mean of two replicates, read-out: mean.
[2] abbreviates: sheet LOPAC_screen_w_protease, LOPAC1280 at 5 µM, replicate 1, read-out: Replicate_1.
The mark [3] stands for this setting: sheet LOPAC_screen_w_protease, LOPAC1280 at 5 µM, replicate 2, read-out: Replicate_2.
Setting [4] is: sheet LOPAC_screen_w_protease, primary screen with protease, mean of two replicates.
The mark [5] stands for this setting: sheet LOPAC_screen_w_protease, primary screen with protease, replicate 1.
Where [6] appears, read: sheet LOPAC_screen_w_protease, primary screen with protease, replicate 2.
Where [7] appears, read: LOPAC1280 primary screen with protease, 5 µM compound, replicate 1.
Setting [8] is: LOPAC1280 primary screen with protease, 5 µM compound, replicate 2.
The mark [9] stands for this setting: sheet LOPAC_screen_w_protease, primary screen with protease, compound at 5 µM, mean of two replicates.
The mark [10] stands for this setting: sheet LOPAC_screen_w_protease, primary screen with protease, compound at 5 µM, replicate 1.
[11] abbreviates: sheet LOPAC_screen_w_protease, primary screen with protease, compound at 5 µM, replicate 2.
Setting [12] is: sheet LOPAC_screen_w_protease, LOPAC1280 primary screen with protease, 5 µM compound, mean of the two replicates.
The mark [13] stands for this setting: sheet LOPAC_screen_w_protease, LOPAC1280 primary screen with protease, 5 µM compound, replicate 1.
[14] abbreviates: sheet LOPAC_screen_w_protease, LOPAC1280 primary screen with protease, 5 µM compound, replicate 2.
[15] abbreviates: sheet LOPAC_screen_w_protease, primary screen with protease, mean of two replicates, read-out: mean.
The mark [16] stands for this setting: sheet LOPAC_screen_w_protease, primary screen with protease, replicate 1, read-out: Replicate_1.
The mark [17] stands for this setting: sheet LOPAC_screen_w_protease, primary screen with protease, replicate 2, read-out: Replicate_2.
Setting [18] is: sheet LOPAC_screen_w_protease, LOPAC1280 primary screen at 5 µM, with protease, mean of the two replicates.
Setting [19] is: sheet LOPAC_screen_w_protease, LOPAC1280 primary screen at 5 µM, with protease, replicate 1.
Where [20] appears, read: sheet LOPAC_screen_w_protease, LOPAC1280 primary screen at 5 µM, with protease, replicate 2.
[21] abbreviates: sheet LOPAC_screen_w_protease, primary screen of LOPAC1280 at 5 µM with protease, mean of the two replicates.
[22] abbreviates: sheet LOPAC_screen_w_protease, primary screen of LOPAC1280 at 5 µM with protease, replicate 1.
Setting [23] is: sheet LOPAC_screen_w_protease, primary screen of LOPAC1280 at 5 µM with protease, replicate 2.
[24] abbreviates: sheet LOPAC_screen_w_protease, LOPAC1280 primary screen with protease, 5 µM compound, mean of the two replicates, read-out: mean.
[25] abbreviates: sheet LOPAC_screen_w_protease, LOPAC1280 primary screen with protease, 5 µM compound, replicate 1, read-out: Replicate_1.
[26] abbreviates: sheet LOPAC_screen_w_protease, LOPAC1280 primary screen with protease, 5 µM compound, replicate 2, read-out: Replicate_2.

This is an account of results in article PMC7587356, “High-Throughput Screening for Inhibitors of the SARS-CoV-2 Protease Using a FRET-Biosensor” (Molecules, 2020).

Counter-ions that a name gives are not always drawn. Like-named read-outs stand apart in the source and are kept apart here.

`NCCCCN=C(N)N` [Agmatine sulfate]: the inhibition at 5 µM runs as follows: under setting [1], 1.26%; under setting [2], 0.743%; under setting [3], 1.77%.

`CC(N)c1cccc(Cl)c1Cl.Cl` (racemic) had a mean under setting [4] of 2.411. This molecule also yielded a Replicate_1 under setting [5] of 4.03. The Replicate_2 under setting [6] is given as 0.7923.

Consider `Oc1cc(-c2ccccc2)nc2nc(Cl)ccc12`, for which the “mean (LOPAC_screen_w_protease)” value (LOPAC1280 primary screen with protease, 5 µM compound, mean of the two replicates) is 1.995. For the same molecule, under setting [7], the “Replicate_1 (LOPAC_screen_w_protease)” value is on record as 0.8933. In addition, the “Replicate_2 (LOPAC_screen_w_protease)” value under setting [8] is on record as 3.097.

With `NC(=O)NO` [Hydroxyurea], under setting [9], the mean was found to be 2.8429. The same molecule registered a Replicate_1 under setting [10] of 4.9936. Also, the Replicate_2 under setting [11] came to 0.6922.

In turn, `CCCn1c(=O)c2c(ncn2C)n(CCC)c1=O` [1,3-Dipropyl-7-methylxanthine] returned a mean under setting [9] of 3.018. This molecule also gave a Replicate_1 under setting [10] of 3.463. Besides, under setting [11], the Replicate_2 was determined as 2.572.

With `Cc1ccc(S(=O)(=O)NC(=O)NN2CCCCCC2)cc1` [Tolazamide], the inhibition at 5 µM (sheet LOPAC_screen_w_protease, primary screen with protease, 5 µM, mean of two replicates, read-out: mean) was -0.908%; the inhibition at 5 µM (sheet LOPAC_screen_w_protease, primary screen with protease, 5 µM, replicate 1, read-out: Replicate_1) is -0.0393%; the inhibition at 5 µM (sheet LOPAC_screen_w_protease, primary screen with protease, 5 µM, replicate 2, read-out: Replicate_2) is -1.78%.

With `CCOC(=O)C1=C[C@]2(CC)CCCN3CCc4c(n1c1ccccc41)[C@@H]32` [Vinpocetine], the inhibition at 5 µM runs as follows: under setting [1], 0.949%; under setting [2], 0.618%; under setting [3], 1.28%.

Molecule `CNCCc1c[nH]c2ccc(O)cc12.O=C(O)C(=O)O` came in with a mean under setting [12] of 5.527. This molecule also displayed a Replicate_1 under setting [13] of 5.7. Further, the Replicate_2 under setting [14] was 5.354.

Consider `CC(C)(C)NCC(O)c1ccc(O)c(CO)c1` (centres unmarked) [Salbutamol], for which the inhibition at 5 µM reads like this: under setting [1], 1.09%; under setting [2], 1.09%; under setting [3], 1.1%.

Under setting [9], `Cn1ccc2cc3c(cc21)CCN3C(=O)Nc1cccnc1` [SB 206553 hydrochloride] gave a mean of 2.821. The Replicate_1 under setting [10] was determined as 3.909. This molecule returned a Replicate_2 under setting [11] of 1.733.

Turning to `O=C1c2c(O)cc(O)cc2O[C@H](c2ccc(O)c(O)c2)[C@H]1O` [dihydroquercetin, reference compound], the “inhibition of 3CLpro in the primary screen” value (5 µM compound, 0.01% Triton X-100, 4 h endpoint, duplicate mean) is reported as 7.5%.

Take `C[C@](N)(Cc1ccc(O)cc1)C(=O)O` [L-alpha-Methyl-p-tyrosine]: the mean under setting [12] was 4.979. The molecule further yielded a Replicate_1 under setting [13] of 5.136. In addition, under setting [14], the Replicate_2 amounted to 4.822.

As to `C#C[C@]1(O)CC[C@H]2[C@@H]3CCC4=Cc5oncc5C[C@]4(C)[C@H]3CC[C@@]21C` [Danazol], the inhibition at 5 µM runs as follows: under setting [15], 2.5%; under setting [16], 4.08%; under setting [17], 0.911%.

Take `CN1C(C)(C)CCCC1(C)C` [Pempidine tartrate]: the inhibition at 5 µM is, setting by setting: under setting [15], 2.3%; under setting [16], 2.5%; under setting [17], 2.11%.

Molecule `Cc1cn[nH]c1.Cl` [4-Methylpyrazole hydrochloride] gave a mean under setting [12] of 4.54. This molecule had a Replicate_2 under setting [14] of 6.559.

On to `NNc1nncc2ccccc12` [Hydralazine hydrochloride], for which the inhibition at 5 µM is 4.76% (read-out: Replicate_1), 1.31% (read-out: Replicate_2) and 3.03% (read-out: mean).

Consider `N#CC(C#N)=Cc1cc(O)c(O)c(O)c1` [Tyrphostin 25], for which the inhibition at 5 µM reads like this: (sheet LOPAC_screen_w_protease, primary screen at 5 µM, mean of two replicates, read-out: mean (LOPAC screen with protease)) 8.52%; (sheet LOPAC_screen_w_protease, primary screen at 5 µM, replicate 1, read-out: Replicate_1 (LOPAC screen with protease)) 10.5%; (sheet LOPAC_screen_w_protease, primary screen at 5 µM, replicate 2, read-out: Replicate_2 (LOPAC screen with protease)) 6.57%.

Molecule `Nc1ncnc2c1nc(Sc1ccc(Cl)cc1)n2C1OC2COP(=O)(O)OC2C1O` (stereo in doubt) [8-(4-Chlorophenylthio)-cAMP sodium] came in with a mean under setting [18] of 0.5451. This molecule also displayed a Replicate_1 under setting [19] of 0.8706. Moreover, under setting [20], the Replicate_2 is listed as 0.2195.

For the molecule `O=C(O)CC[N+](=O)[O-]` [3-Nitropropionic acid], the inhibition at 5 µM (sheet LOPAC_screen_w_protease, primary screen of LOPAC1280 at 5 µM with protease, mean of the two replicates, read-out: mean) came to 3.54%; the inhibition at 5 µM (sheet LOPAC_screen_w_protease, primary screen of LOPAC1280 at 5 µM with protease, replicate 1, read-out: Replicate_1) was determined as 2.8%; the inhibition at 5 µM (sheet LOPAC_screen_w_protease, primary screen of LOPAC1280 at 5 µM with protease, replicate 2, read-out: Replicate_2) came to 4.28%.

In the case of `Cc1ccc(S(=O)(=O)N[C@@H](CCCCN)C(=O)CCl)cc1.Cl`, the “mean (LOPAC screen with protease)” value (sheet LOPAC_screen_w_protease, primary screen at 5 µM, mean of two replicates) is on record as 20.7427. In addition, the “Replicate_1 (LOPAC screen with protease)” value (sheet LOPAC_screen_w_protease, primary screen at 5 µM, replicate 1) was 21.9131. Besides, the “Replicate_2 (LOPAC screen with protease)” value (sheet LOPAC_screen_w_protease, primary screen at 5 µM, replicate 2) is on record as 19.5724.

In the case of `COc1cc(Cc2cnc(N)nc2N)cc(OC)c1OC` [Trimethoprim], the inhibition at 5 µM was -0.343% (read-out: Replicate_1), -3.24% (read-out: Replicate_2) and -1.79% (read-out: mean).

On to 17alpha-hydroxyprogesterone, for which the mean under setting [4] stood at 2.147. The Replicate_1 under setting [5] is 1.557.

Turning to `NC(=O)c1cccc(N)c1` [3-aminobenzamide], the inhibition at 5 µM was found to be 1.28% under setting [1], 1.05% under setting [2] and 1.51% under setting [3].

The molecule `CS(=O)(=O)O.Cn1cc(C(F)(F)F)nc1-c1ccc(OCC(O)CNCCOc2ccc(O)c(C(N)=O)c2)cc1` (centres unmarked) [CGP 20712A methanesulfonate] gave a mean under setting [18] of 0.4402. This molecule registered a Replicate_1 under setting [19] of 1.402. This molecule also displayed a Replicate_2 under setting [20] of -0.5212.

Turning to `Cc1[nH]c2ccc(O)cc2c1CCN.O=C(O)/C=C\C(=O)O` [2-Methyl-5-hydroxytryptamine maleate], the mean under setting [12] came to 5.124. Under setting [13], this molecule had a Replicate_1 of 4.629. This molecule also had a Replicate_2 under setting [14] of 5.62.

With `Cl.NCCNC(=O)c1ccc(Cl)cc1` [Ro 16-6491 hydrochloride], the mean (sheet LOPAC_screen_w_protease, primary screen with protease, 5 µM, mean of two replicates) is on record as -0.0598. Further, the Replicate_1 (sheet LOPAC_screen_w_protease, primary screen with protease, 5 µM, replicate 1) was 0.2844. This molecule showed a Replicate_2 (sheet LOPAC_screen_w_protease, primary screen with protease, 5 µM, replicate 2) of -0.404.

Under setting [21], `Nc1cc(=O)[nH]c(N)n1` [2,6-Diamino-4-pyrimidinone] came in with a mean of 3.421. Under setting [22], this molecule registered a Replicate_1 of 3.441. The same molecule showed a Replicate_2 under setting [23] of 3.4.

Under setting [4], `CC(=N)NCCCC[C@H](N)C(=O)O.Cl` [L-N6-(1-Iminoethyl)lysine hydrochloride] displayed a mean of 2.233. For the same molecule, under setting [5], the Replicate_1 was determined as 3.474. The molecule further registered a Replicate_2 under setting [6] of 0.9911.

In the case of `CCCn1c(=O)c2[nH]c(C3CCCC3)nc2n(CCC)c1=O` [8-Cyclopentyl-1,3-dipropylxanthine], under “LOPAC1280 primary screen with protease, 5 µM compound, mean of two replicates”, the “mean (LOPAC_screen_w_protease)” value stood at 1.568. Besides, under setting [7], the “Replicate_1 (LOPAC_screen_w_protease)” value came out at 3.936. For the same molecule, the “Replicate_2 (LOPAC_screen_w_protease)” value under setting [8] is -0.7999.

Under setting [21], `Ic1ccccc1CNC1C2CCN(CC2)C1C(c1ccccc1)c1ccccc1.O=C(O)C(=O)O` [L-703,606 oxalate] displayed a mean of 3.6584. In addition, the Replicate_1 under setting [22] was determined as 4.135. The molecule further gave a Replicate_2 under setting [23] of 3.181.

Take `CN(C)[C@@H]1C(O)=C(C(N)=O)C(=O)[C@@]2(O)C(O)=C3C(=O)c4c(O)ccc(Cl)c4[C@@H](O)[C@H]3C[C@@H]12` [Demeclocycline hydrochloride]: the inhibition at 5 µM under setting [24] is 4.52%, the inhibition at 5 µM under setting [25] is 7.2% and the inhibition at 5 µM under setting [26] came to 1.84%.

As for `CC(Cc1ccc(O)cc1)NCC(O)c1cc(O)cc(O)c1` (centres unmarked) [Fenoterol hydrobromide], the inhibition at 5 µM under setting [24] was determined as 5.3%, the inhibition at 5 µM under setting [25] came to 6.58% and the inhibition at 5 µM under setting [26] turned out to be 4.02%.
